Read-outs that look alike come from different tables or passages of the source.
Tests used:
[1] = molecular target: muscarinic receptors (cerebral cortex); experiment: Binding to muscarinic receptors, cerebral cortex (displacement of 3H-N-methylscopolamine); set-up: species or system rat (male Sprague-Dawley); details: cerebral cortex homogenate 1:3000; 0.3 n molar 3H-NMS; 30° C, 45 min, pH 7.4; read-out: Receptor binding tests IC50, Cortex
Procedure: (§1) 2. Studies of binding to muscarinic receptors: Determination of the IC50 value
(§2) The organ donors were male Sprague-Dawley rats with a body weight of from 180 to 220 g. After the heart, stomach and cerebral cortex had been removed, the remainder of the operation was carried out in ice-cold Hepes-HCl buffer (pH 7.4; 100 m molar NaCl, 10 m molar MgCl2). The smooth muscle of the fundus of the stomach was separated from the mucous membrane of the stomach and subjected to preliminary homogenization. The whole heart was cut up with scissors. All the organs were then homogenized in a Potter apparatus.
(§3) For the binding test, the homogenized organs were diluted as follows:
(§4) The homogenized organ preparations were incubated at a specific concentration of the radiolabelled compound and with a series of concentrations of the nonradioactive test substances in an Eppendorf centrifuge tube at 30° C. The duration of incubation was 45 minutes. 0.3 n molar ^3 H-N-methylscopolamine (^3 H-NMS) was used as the radiolabelled compound. After incubation had been brought to an end by centrifuging at 14000 g, the radioactivity in the pellet was determined. It represents the sum of the specific and nonspecific binding of ^3 H-NMS. The proportion of nonspecific binding was defined as the radioactivity which was bound in the presence of 1μ molar quinuclidinylbenzylate. Four measurements were taken in each case. The IC50 values of the non-labelled test substances were determined graphically. They represent the concentration of test substance at which the specific binding of ^3 H-NMS to the muscarinic receptors in the various organs was inhibited by 50%.

[2] = molecular target: muscarinic receptors (smooth muscle fundus of stomach); experiment: Binding to muscarinic receptors, smooth muscle of the fundus of the stomach (displacement of 3H-N-methylscopolamine); set-up: species or system rat (male Sprague-Dawley); details: smooth muscle of fundus homogenate 1:100; 0.3 n molar 3H-NMS; 30° C, 45 min, pH 7.4; read-out: Receptor binding tests IC50, Smooth muscle fundus of stomach
Procedure: as §1, §2, §3
Smooth muscle of the fundus of the stomach: 1:100
as §4

[3] = molecular target: T1, muscarinic receptors (heart) (Rattus norvegicus, UniProt P10980); experiment: Binding to muscarinic receptors, whole heart (displacement of 3H-N-methylscopolamine); set-up: species or system rat (male Sprague-Dawley)
T1 construct: The whole heart was cut up with scissors; from tissue; host or cells: whole heart of male Sprague-Dawley rats, homogenate
T1 sequence (P10980 1-466): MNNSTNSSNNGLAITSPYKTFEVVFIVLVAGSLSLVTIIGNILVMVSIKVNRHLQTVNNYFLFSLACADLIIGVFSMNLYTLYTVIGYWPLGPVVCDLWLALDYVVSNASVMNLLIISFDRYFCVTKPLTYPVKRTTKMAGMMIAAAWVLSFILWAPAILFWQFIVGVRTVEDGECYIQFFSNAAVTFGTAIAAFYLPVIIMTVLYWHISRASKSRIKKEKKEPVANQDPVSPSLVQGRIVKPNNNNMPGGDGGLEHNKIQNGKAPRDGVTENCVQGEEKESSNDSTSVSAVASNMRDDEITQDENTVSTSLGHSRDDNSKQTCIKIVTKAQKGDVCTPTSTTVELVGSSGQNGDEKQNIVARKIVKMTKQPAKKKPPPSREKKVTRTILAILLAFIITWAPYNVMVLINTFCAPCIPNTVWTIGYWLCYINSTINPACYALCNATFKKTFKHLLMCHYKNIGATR
Procedure: as §1, §2, §3, §4

[4] = system: oxotremorine-induced lesions in the mucous membrane of the stomach; experiment: Oxotremorine test: antiulcerative effect (protection against lesions of the mucous membrane of the stomach); format: in vivo, rat (female albino, Crl:COBS-CD (SD) BR); details: Rattus norvegicus, iv; for ED50: read-out: Oxotremorine Test, Antiulcerative effect ED50; for ED70: read-out: Oxotremorine Test, Antiulcerative effect ED70
Procedure: (§5) Oxotremorine, a specific agonist for muscarinic receptors, produces lesions in the mucous membrane of the stomach in rats and increases their secretion of saliva. This test method was chosen so that any selective activity of an antimuscarinic substance on the stomach could be identified.
(§6) 10 female albino rats (of the Crl:COBS-CD (SD) BR strain) with a body weight of from 120 to 150 g were used in each treatment group and were kept without food for 24 hours before the start of the test but given free access to drinking water.
(§7) In order to determine, in preliminary tests, the muscarinic effect of oxotremorine on each of the symptoms studied, a dosage/activity curve was drawn up with at least three dosages for each symptom.
(§8) When testing the antimuscarinic substances, the dosage of oxotremorine which triggered the symptom in question in 90 to 100% of the animals in the preliminary tests was used.
Lesions in mucous membrane of stomach: 0.62 mg/kg i.v.
(§9) Each antimuscarinic substance was administered intravenously in uniformly graduated doses 15 minutes before the oxotremorine was administered. Control groups were given corresponding quantities of the solvent and suspending agent instead of the test substance.
(§10) Immediately after the oxotremorine was administered, the animals were placed in a glass case for 15 minutes and observed.
(§11) The ED50 values were determined using the method described by LITCHFIELD and WILCOXON (J. Pharmacol. Exp. Ther. 96, 99, 1949).
The effects on lesions of the mucous membrane of the stomach were evaluated as follows:
The lesions of the gastric mucous membrane were produced by intravenous injection of 0.62 mg/kg of oxotremorine 30 minutes after the oral administration of 1 mg/kg of neostigmine (a cholinesterase inhibitor). 60 minutes after the administration of the neostigmine, the animals were killed, the stomachs were removed and opened and examined for the presence of any lesions in the mucous membrane. The protective effect of the test substances was expressed as the percentage inhibition (percentage of animals without lesions). The ED50 and ED70 values were determined using the method of LITCHFIELD and WILCOXON (see above).

[5] = system: oxotremorine-induced secretion of saliva; experiment: Oxotremorine test: inhibition of salivation; format: in vivo, rat (female albino, Crl:COBS-CD (SD) BR); details: Rattus norvegicus, iv, 0.25 h, read-out: Oxotremorine Test, Inhibition of salivation ED50
Procedure: as §5, §6, §7, §8
Secretion of saliva: 0.083 mg/kg i.v.
as §9, §10, §11

[6] = Mydriasis (effect on the pupil size); details: rat, in vivo, iv; pupil size observed for 10 minutes; double blind
Procedure: The effect of the test substances on the pupil size in rats was investigated as follows:
The substances were administered intravenously to groups of 10 animals in at least three uniformly graduated doses. […] The percentage of test animals in which mydriasis occurred was determined. The ED50 values were again determined using the method of LITCHFIELD and WILCOXON (see above).

[7] = 15 min before oxotremorine 0.62 mg/kg i.v., neostigmine 1 mg/kg oral
[8] = i.v., 15 min before oxotremorine 0.083 mg/kg i.v., double blind

CN1CC=C(C(=O)N2c3ccccc3NC(=O)c3ccccc32)CC1 [Substance A, 5,10-dihydro-5-[(1-methyl-1,2,5,6-tetrahydro-4-pyridinyl)-carbonyl]-11H-dibenzo[b,e][1,4]diazepin-11-one]
IC50 [1]: 0.03 µM | IC50 [2]: 0.1 µM | IC50 [3]: 0.25 µM | ED50 [4, 7]: 0.0031 mg/kg | ED70 [4, 7]: 0.0065 mg/kg | ED50 [5, 8]: 0.08 mg/kg | ED50 at 10 min [6]: 0.0366 mg/kg

CN1CCC(CC(=O)N2c3ccccc3C(=O)Nc3cccc(Cl)c32)CC1 [Substance B, 6-chloro-5,10-dihydro-5-[(1-methyl-4-piperidinyl)acetyl]-11H-dibenzo[b,e][1,4]diazepin-11-one]
IC50 [1]: 0.028 µM | IC50 [2]: 0.17 µM | IC50 [3]: 0.2 µM | ED50 [4, 7]: 0.0044 mg/kg | ED70 [4, 7]: 0.0084 mg/kg | ED50 [5, 8]: 0.23 mg/kg | ED50 at 10 min [6]: 0.138 mg/kg

CN1[C@@H]2CC[C@H]1C[C@@H](CC(=O)N1c3ccccc3NC(=O)c3ccccc31)C2 [Substance C, endo-5,10-dihydro-5-[(8-methyl-8-azabicyclo[3,2,1]-oct-3-yl)acetyl]-11H-dibenzo[b,e][1,4]diazepin-11-one]
IC50 [1]: 0.015 µM | IC50 [2]: 0.2 µM | IC50 ([3]; whole heart homogenate 1:250, 0.3 n molar 3H-NMS, 30° C, 45 min, pH 7.4, read-out: Receptor binding tests IC50, Heart): 0.055 µM | ED50 [4]: 0.0011 mg/kg | ED70 [4]: 0.0038 mg/kg | ED50 [5]: 0.105 mg/kg | ED50 at 10 min [6]: 0.054 mg/kg
